# Experimental data published in patent US12005265B2, “Compositions and methods to modulate cell activity” (THE ROCKEFELLER UNIVERSITY, priority 2014, dated 2024).
# Key:
# HEK or N38 cells = assay: Whole cell voltage clamp recordings of cultured HEK and N38 cells; type: cell-based; details: 2APB 200 μM, −60 mV
# Description: Neurons expressing GFP were visualized using epifluorescence on an upright Zeiss Axioskop 2FS Plus microscope equipped with a Hamamatsu CCD camera. External solution contained (in mM): 140 NaCl, 2.8KCl, 2CaC2, 1 MgCl2, 1HEPES, 10 glucose, pH 7.4.
# I-V relationships were obtained by measuring current responses to increasing 5 mV steps in the presence of 200 μM 2APB. Cells were held at −60 mV. Magnetic activation was applied by bringing a permanent magnet within 500 microns of the recorded cell for 5 seconds with a micromanipulator. Recordings were acquired with an Axopatch 200B amplifier, filtered to 2 kHz and digitized at 10 kHz (pClamp software, Molecular Devices). Data were analyzed using IGOR Pro (Wavemetrics) and NeuroMatic. (neuromatic.thinkrandom.com). Series resistance was monitored and not compensated for. If there was more than a 20% change in series resistance the recording was excluded.
# αGFP-TRPV1 = details: HEK cells transfected with αGFP-TRPV1; 2APB; vs 0.85-fold
# Description: Transfected cells were washed three times in PBS then loaded with Fluo-4 3 μM (Invitrogen) in the presence of sulfinpyrazone 500 μM (Sigma) for 60 min at room temperature. Cells were washed again in PBS then incubated for 30 min in sulfinpyrazone in PBS. Cells were washed and then imaged in calcium imaging buffer. Imaging was performed using a Deltavision personal DV imaging system (Applied Precision, Issawaq, WA) equipped with a custom-made ceramic lens.
# N38 cells [1] = assay: Multiphoton chloride imaging (MQAE) of stably transfected N38 cells; type: cell-based, mouse
# Description: Stably transfected cells were washed with Krebs-HEPES buffer 3 times then loaded with MQAE (N-(Ethoxycarbonylmethyl)-6-Methoxyquinolinium Bromide, 5 mM, Invitrogen) for 60 min at room temperature. […] Imaging was performed using LSM 510 NLO inverted multiphoton and confocal system (Zeiss) using a 40× objective with two photon excitation at 750 nm. […] Imaging was repeated in the presence of Ruthenium red (100 μM) (2 occasions for each condition). Images were analyzed using Image J software.
# N38 cells [2] = assay: Effect of RF on pCREB and c-fos in N38 cells; type: cell-based, mouse; details: N38 cells expressing αGFP-TRPV1/GFP-ferritin
# Description: Effect of RF or magnet on pCREB and cFos: 24 h prior to the study, cells were placed in 1% FBS medium at 32° C. to ensure minimal activation of TRPV1 and calcium dependent pathways. On the day of study, cells were incubated in 500 μl of calcium imaging buffer at room temperature (control) or in a RF field (31 mT) at room temperature. For magnet treatment, cells were treated with a static magnetic field (280 mT) for 5 seconds every 2 minutes for 1 hour at room temperature. After 60 min, the cells were placed on ice, the supernatant removed and cells lysed with RIPA buffer (40 μl, pCREB) or lysis buffer (100 μl Agilent Absolutely RNA microprep kit) and frozen at −80° C. until assay or RNA purification. Each study was repeated on 3 occasions each with 4 replicates. Control studies with N38 cells alone were performed on 2 occasions with 4 replicates.
# Protein was isolated by lysis in RIPA buffer and centrifugation at 16000 rpm, 4° C. for 5 min before addition of 4× Laemelli buffer. Samples were denatured for 5 mins at 95° C. and frozen at −20° C. before assay. Samples (15 ul) were run on a 4-15% gel then transferred to PVDF membrane. Membranes were blocked (3% dried milk in TBST buffer) for 1 hour at room temperature then incubated in primary antibody (Phospho-CREB (Ser133) (87G3) Rabbit mAb (1:1000) or beta Actin Rabbit Ab (1:1000), Cell Signaling) in TBST overnight at 4 degrees. […]
# N38 cells [3] = assay: Calcium imaging of stably transfected N38 cells under RF or magnet; type: cell-based, mouse; details: N38 cells expressing αGFP-TRPV1/GFP-ferritin
# Description: TRPV1 is a non-selective cation channel with relatively high permeability to divalent cations, particularly calcium (Ca2+>Mg2+>Na+K+Cs+)^55. […] Cells were washed again in PBS then incubated for 15-30 min in sulfinpyrazone in PBS. […] Images were acquired every 3 seconds for 3 minutes. […] Imaging was repeated in the presence of Ruthenium red (100 μM) (2 occasions for each condition). Images were analyzed using Image J software.
# For studies to examine the effects of increasing RF or magnet field strength, to assess the effects of short RF treatment (10s) on calcium responses and to examine the kinetics of the calcium response, cells were loaded with FluoForte 20 μM (Enzo Life Sciences, Lorrach, Germany) in the presence of Pluronic F-127 (0.02% vol/vol) and sulfinpyrazone 500 μM. […] Imaging was performed as above with images acquired every second for 1 minute. Cells were imaged without treatment (4 occasions), before and during RF treatment at 31, 27 and 23 mT (4 occasions each), before and during application of a neodymium magnet at 280 or 130 mT (magnet 2 mm or 5 mm from the cells respectively, 4 occasions each) and before, during and after 10 second treatment with RF (31 mT) (4 occasions). Images were analyzed using Image J software.
# [4] = N38 cells stably transfected with αGFP-TRPV1^Mutant/GFP-ferritin
smiles,measurement,setting,value
"NCCOB(c1ccccc1)c1ccccc1 [2APB, 2-aminoethoxydiphenyl borate]",current induced by TRPV1 agonist,HEK or N38 cells; HEK cell expressing αGFP-TRPV1/GFP-ferritin,inward current
same,current induced by TRPV1 agonist,HEK or N38 cells; HEK cell expressing αGFP-TRPV1^Mutant/GFP-ferritin,outward current
same,change in Fluo-4 fluorescence (intracellular calcium),αGFP-TRPV1,2.0 fold
same,level of intracellular chloride measured by MQAE quenching,N38 cells [1]; [4],significantly increased
N.N.N.N.N.N.N.N.N.N.N.N.N.N.[Cl-].[Cl-].[Cl-].[Cl-].[Cl-].[Cl-].[O-2].[O-2].[Ru+3].[Ru+3].[Ru+4] [ruthenium red],effect on RF-induced increase of pCREB and c-fos,N38 cells [2],blocked
same,effect on RF-induced rise of intracellular calcium,N38 cells [3],blocked
same,effect on magnet-induced increase of intracellular calcium,N38 cells [3],blocked
same,effect on magnet-induced increase of intracellular chloride,N38 cells [1]; N38 cells expressing αGFP-TRPV1^Mutant/GFP-ferritin,blocked
same,effect on 2APB-induced increase of intracellular chloride,N38 cells [1]; [4],blocked
